Earlier results, collected in paper PMC8245892, “Pharmacokinetics of a Single Dose of Turmeric Curcuminoids Depends on Formulation: Results of a Human Crossover Study” (The Journal of Nutrition, 2021).
Counter-ions that a name gives are not always drawn.

What was measured:
[1] = system: phorbol ester–induced PGE2 production; set-up: method as in PMID 11221833; conditions: human cells; compared with unconjugated curcumin
[2] = set-up: method as in PMID 24280069
NF-κB = system: NF-κB; set-up: method as in PMID 24280069
[3] = aqueous buffer (pH 5.0)

Compound	Reduction of phorbol ester–induced PGE2 production [1]	Antiproliferative activity [2]	Effect on NF-κB (NF-κB)	Solubility [3]
COc1cc(/C=C/C(O)=C/C(=O)/C=C/c2ccc(OS(=O)(=O)O)c(OC)c2)ccc1O [curcumin sulfate]	less effective than unconjugated curcumin			
COc1cc(/C=C/C(O)=C/C(=O)/C=C/c2ccc(O[C@@H]3O[C@H](C(=O)O)[C@@H](O)[C@H](O)[C@H]3O)c(OC)c2)ccc1O [curcumin monoglucuronide]		very little antiproliferative activity	no effect	
curcumin				0.011 µg/mL
COc1cc(C=CC(=O)CC(=O)C=Cc2ccc(OC3OC(C(=O)O)C(O)C(O)C3O)c(OC)c2)ccc1OC1OC(C(=O)O)C(O)C(O)C1O (stereo not drawn) [diglucuronide]		very little antiproliferative activity	no effect	
